Source: patent US10000773B2, “Cytochrome P450 and use thereof for the enzymatic oxidation of terpenes” (FIRMENICH SA, priority 2011, dated 2018)

How the values were obtained:
vetiver P450s = experiment: Bioconversion of other monoterpene and sesquiterpene molecules using whole E. coli cells expressing the vetiver P450s and CPR; format: cell-based, Vetiveria zizanioides (L.) Nash; conditions: resting E. coli cells in potassium phosphate buffer as in Example 8
Experimental: The cells were harvested in exponential growing phase, centrifuged and resuspended in 0.5 volume of potassium phosphate buffer 50 mM pH 7.0 supplemented with 5% glycerol or 3% glucose. The substrate ((+)-zizaene) was added to a final concentration of 0.5 mg/ml as mixture composed of 10 mg Tween® 20 (sigma-Aldrich), 10 mg antifoam (Erol DF, PMC Ouvrie, Lesquin, France), 20 mg (+)-zizaene and 1 ml water. The conversion was allowed to proceed for 24 hours at 20° C. with moderate shaking. The media were extracted with 2 volumes of ethyl-acetate and the extracts were analyzed by GCMS on an Agilent 6890 Series GC system connected to an Agilent 5975 mass detector. The GC was equipped with 0.25 mm inner diameter by 30 m SPB-1 capillary column (Supelco, Bellefonte, Pa.). The carrier gas was He at a constant flow of 1 mL/min. The initial oven temperature was 50° C. (1 min hold) followed by a gradient of 10° C./min to 300° C. The identification of the products was based on the comparison of the mass spectra and retention indices with authentic standards and internal databases.
E. coli cells expressing the vetiver P450s and a CPR were prepared, grown and the bioconversions performed using resting cells in potassium phosphate buffer as described in Example 8.
Assays were performed with several terpene molecules and the formation of oxygenated terpene molecules was evaluated using GCMS analysis as described in Example 8.

VzP521-11-1 = experiment: Bioconversion of (+)-zizaene using whole E. coli cells expressing VzP521-11-1 and a CPR; format: cell-based, Vetiveria zizanioides (L.) Nash; conditions: 24 hours at 20° C.
Experimental: (§1) The oxidation of (+)-zizaene can be performed using whole E. coli cells expressing the vetiver P450s and a CPR (bioconversion). Zizaene was prepared using engineered E. coli cells following the method described in the patent WO 2010/134004 and using the sesquiterpene synthase with the sequence accession number HI931369.
(§2) E. coli cells (BL21Star™(DE3) E. coli cells (Invitrogen Ltd) or JM109(DE3) (Promega)) were transformed with the plasmids pCW-2391-521-11 or pCW-2392-521-16 or cells were co-transformed with the plasmids pCW-218-521-11 or pCW-218-521-16 and pACYC-tcATR1-opt and were grown in TB medium supplemented with 3% glycerol or LB medium supplemented with 1% glucose. The cultures were incubated at 37° C. until reaching an optical density of 1. The cultures were then transferred to 28° C., 1 mM IPTG and 74 μg/ml δ-aminolevulinic acid were added and the culture were incubated for 24 hours.
(§3) The cells were harvested in exponential growing phase, centrifuged and resuspended in 0.5 volume of potassium phosphate buffer 50 mM pH 7.0 supplemented with 5% glycerol or 3% glucose. […] The media were extracted with 2 volumes of ethyl-acetate and the extracts were analyzed by GCMS on an Agilent 6890 Series GC system connected to an Agilent 5975 mass detector. […]

VzP521-16-1 = experiment: Bioconversion of (+)-zizaene using whole E. coli cells expressing VzP521-16-1 and a CPR; format: cell-based, Vetiveria zizanioides (L.) Nash; conditions: 24 hours at 20° C.
Experimental: as §1, §2, §3

[1] = system: heterologous P450 and CPR complex; format: cell-based, E. coli
Experimental: The oxidized products of (+)-zizaene can also be produced in E. coli cells engineered to produce sesquiterpenes from a carbon source such as glucose or glycerol. Plasmids were prepared consisting of the pCWori (Barnes H. J (1996) Method Enzymol. 272, 3-14) plasmid containing an operon composed of the P450, the P450-reductase and the terpene synthase. Two plasmids were thus prepared by inserting an RBS sequence and the optimized sequence encoding for the (+)-zizaene synthase (VzZS) after the stop codon of the CPR sequence in the pCW-2391-521-11 or pCW-2392-521-16.
The VzZS was amplified from pETDuet-VzZS-opt plasmid (as described in WO 2010/134004) using the primers 2401-VzZS-F (SEQ ID NO:33) and 2401-VzZS-R (SEQ ID NO:34). […]
OverExpress™ C43(DE3) E. coli cells (Lucigen® Corporation) were co-transformed with the plasmid pACYC-29258-4506 and the plasmid pCW-2401-521-11 or the plasmid pCW-2402-521-16. […] After 48 hours, the cultures were extracted with 2 volumes of tert-Butyl methyl ether (MTBE) and the extracts analyzed by GCMS as described in Example 8, except for the oven temperature that was initially set at 80° C. with one minute hold, followed by gradient of 10° C./min to 300° C.

| Compound | bioconversion, formation of oxygenated terpene molecules (GCMS) (vetiver P450s) | also measured |
| --- | --- | --- |
| C=C(C)[C@@H]1CCC2=CCC[C@@H](C)[C@]2(C)C1 [valencene] | bioconversion was observed |  |
| (−)-limonene | bioconversion was observed |  |
| C=C1[C@H]2CC[C@H](C)[C@@]23CC[C@@H](C3)C1(C)C [(+)-zizaene] | bioconversion was observed | oxidation products identified by GCMS (VzP521-11-1): khusimol, zizanal and zizanoic acid; oxidation of substrate (GCMS) (VzP521-11-1; substrate 0.5 mg/ml): oxidation of (+)-zizaene was observed; oxidation products identified by GCMS (VzP521-16-1): khusimol, zizanal and zizanoic acid; oxidation of substrate (GCMS) (VzP521-16-1; substrate 0.5 mg/ml): oxidation of (+)-zizaene was observed; oxidation of the sesquiterpene produced in the engineered cells (GCMS) [1]: is oxidized by the heterologous P450 and CPR complex |
| CC1=CC[C@H]2[C@H]3[C@@H]1[C@]2(C)CC[C@H]3C(C)C [alpha-copaene] | bioconversion was observed |  |
| CC1=CC[C@]23C[C@H]1C(C)(C)[C@@H]2CC[C@H]3C [alpha-funebrene] | bioconversion was observed |  |
| C=C(C)[C@H]1C=C2[C@H](C)CC[C@@H]2[C@H](C)CC1 [gamma-gurjunene] | bioconversion was observed |  |
| C=C1CCCC(C)(C)[C@@]12CC=C(C)CC2 [beta-chamigrene] | bioconversion was observed |  |
| CC1=CC[C@@H]2[C@@H]3[C@H]1[C@@]2(C)CCCC3(C)C [alpha-longipinene] | bioconversion was observed |  |
| C/C1=C\CC/C(C)=C/CC(C)(C)/C=C/C1 [alpha-humulene] | bioconversion was observed |  |
| C=C1CC[C@@H]2[C@H]([C@@H]3[C@H](C)CC[C@H]13)C2(C)C [alloaromadendrene] | bioconversion was observed |  |
| C=C(C)C1CC=C(C)CC1 (single isomer, unassigned; (+)) [(+)-limonene] | bioconversion was observed |  |
| CC1=CC[C@]2(C)CCCC(C)(C)[C@@]23C[C@@H]13 [thujopsene] | bioconversion was observed |  |
| alpha neoclovenene | bioconversion was observed |  |
| alpha gurjunene | bioconversion was observed |  |
| CC1=CC[C@@]23C[C@@H]1C(C)(C)[C@@H]2CC[C@H]3C [alpha-cedrene] | bioconversion was observed |  |
| CC1=C2CC[C@@H](C)[C@H]2[C@H]2[C@@H](CC1)C2(C)C [ledene] | bioconversion was observed |  |
| C=C1CCC2CC1C2(C)C (stereo not drawn) [beta-pinene] | bioconversion was observed |  |
| C=C1[C@H]2C[C@H]3[C@@H](C(C)C)CC[C@]1(C)[C@H]3C2 [isosativene] | bioconversion was observed |  |
| C=C1CC[C@@]23C[C@@H]1C(C)(C)[C@@H]2CC[C@H]3C [beta-funebrene] | bioconversion was observed |  |
| CC1=CCC2CC1C2(C)C (stereo not drawn) [alpha-pinene] | bioconversion was observed |  |
